Measurements reported in patent publication US4943566A, “Novel 17-aryl-steroids” (Roussel Uclafi, priority 1987, dated 1990).

System: mammary Tumoral cells MCF-7
Assay: Anti-proliferative activity against the increase of mammary tumoral cells MCF-7 (ADN by DABA fluorimetry)
Format: cell-based
Settings: Homo sapiens, MCF7, 144 h; MCF-7 cells, SVF medium, 6 days, ADN content; read-out: CI50 in nM (concentration which inhibits by 50% the increase in the MCF 7 cells)
Protocol: The cell culture line MCF-7 was maintained in culture in SVF (1) medium at 37° C. in a humid atmosphere containing 5% CO2. The cells at subconfluence were collected by trypsination (0.05% trypsine, 0.02% EDTA) then rinsed by gentle centrifiguation. A sample of the cells in suspension was counted by the Malassez cell. To study the increase, the cells resuspended in SVF medium were innoculated at a rate of 30,000 cells per well in a multiwell plate (24 wells per 2.5 cm^2) 24 hours after the innoculation (Day 0), the test compound was added to the medium in an ethanolic solution (final ethanol concentration is 0.1%) a concentration of 10^-6 M. The control wells received the same concentration of ethanol. The mediums were totally renewed at 48 hours. At the end of the experiment (Day 6), the medium was aspirated and the cells were immediately fixed by 150 μl of methanol after a dose of ADN. The anti-proliferative activity of the products was determined by the capacity to inhibit ADN increase.
ADN is dosed by a fluorimetric method using DABA (3,5-diamino benzoic acid). 150 μl of DABA was added to each well and the plates were incubated for 45 minutes at 56° C. and then 1.5 ml of 1N hydrochloric acid was added. The fluoresence was measured with a fluorimeter (excitement length 400 nM-length of emission wave 500 nM). The amount of ADN per well was evaluated with respect to a standard scale obtained by treating under the same conditions an ADN standard of the calf thymus. The concentration in nM which inhibit by 50% the increase in the MCF 7 cells or CI50 was determined in the same manner with the results of the following Table.
The medium for culture of calf fetal serum (SVF) was prepared as follows: MEM medium (minimal essential medium) to which was added non-essential amino acids (GIBCO), peni-strepto (penicillin 100 U/ml, streptomycine 0.1 mg/ml), 0.1% fungizone, 50 ng/ml of insulin and a 10% final concentration of calf fetal serum free of endrogenic steroids.

Row | IC50 | Structure (SMILES)
1 | 500 nM | CN(C)c1ccc([C@H]2C[C@@]3(C)[C@@H](CC[C@@]3(O)c3ccc(N(C)C)cc3)[C@@H]3CCC4=CC(=O)CCC4=C32)cc1 [Example 2, 11β,17α-bis-(4-dimethylamino-phenyl)-Δ^4,9-estradiene-17β-ol-3-one]
2 | 400 nM | COc1ccc([C@]2(O)CC[C@H]3[C@@H]4CCC5=CC(=O)CCC5=C4[C@@H](c4ccc(N(C)C)cc4)C[C@@]32C)cc1 [Example 4, 11β-(4-dimethylamino-phenyl)-17α-(4-methoxy-phenyl)-Δ^4,9-estradiene-17β-ol-3-one]
